According to the NIST ThermoML archive (doi:10.1021/je800152d):

Experiment: cn = amount concentration of the nth substance listed, in mol/dm3
Settings: 298.15 K, 101 kPa, Liquid, Direct current cell with electrodes

CCCCCCCCn1cc[n+](C)c1.O=S(=O)([N-]S(=O)(=O)C(F)(F)F)C(F)(F)F + ClCCl
Settings | molar conductivity [S·m2/mol]
c1 = 1.807e-05 | 0.005919
c1 = 4.306e-05 | 0.004426
c1 = 7.895e-05 | 0.003536
c1 = 0.0001156 | 0.003048
c1 = 0.0001516 | 0.002738
c1 = 0.0001934 | 0.002482
c1 = 0.0002361 | 0.002291
c1 = 0.0002758 | 0.002153
c1 = 0.000322 | 0.002022
c1 = 0.000369 | 0.001913

CCCCCC[n+]1ccn(C)c1.O=S(=O)([N-]S(=O)(=O)C(F)(F)F)C(F)(F)F + ClCCl
Settings | molar conductivity [S·m2/mol]
c1 = 3.872e-05 | 0.004826
c1 = 7.796e-05 | 0.003727
c1 = 0.0001134 | 0.003224
c1 = 0.0001471 | 0.002907
c1 = 0.0001812 | 0.002674
c1 = 0.000212 | 0.00251
c1 = 0.0002454 | 0.002365
c1 = 0.0002746 | 0.002261
c1 = 0.0003046 | 0.002169
c1 = 0.0003313 | 0.002097

CCCC[n+]1ccn(C)c1.O=S(=O)([N-]S(=O)(=O)C(F)(F)F)C(F)(F)F + ClCCl
Settings | molar conductivity [S·m2/mol]
c1 = 3.993e-05 | 0.005031
c1 = 7.416e-05 | 0.004
c1 = 0.0001094 | 0.00344
c1 = 0.0001439 | 0.003085
c1 = 0.0001819 | 0.002807
c1 = 0.0002096 | 0.002651
c1 = 0.0002378 | 0.002519
c1 = 0.0002686 | 0.002394
c1 = 0.000298 | 0.002296
c1 = 0.0003273 | 0.002211

CCCCn1cc[n+](C)c1C.O=S(=O)([N-]S(=O)(=O)C(F)(F)F)C(F)(F)F + ClCCl
Settings | molar conductivity [S·m2/mol]
c1 = 1.989e-05 | 0.008834
c1 = 6.027e-05 | 0.006684
c1 = 9.148e-05 | 0.005885
c1 = 0.000124 | 0.005336
c1 = 0.0001564 | 0.004935
c1 = 0.0001888 | 0.004628
c1 = 0.0002366 | 0.004278
c1 = 0.0002859 | 0.004001
c1 = 0.0003299 | 0.003802
c1 = 0.0003742 | 0.003634

CCCCn1cc[n+](C)c1C.F[P-](F)(F)(F)(F)F [1-butyl-2,3-dimethylimidazolium hexafluorophosphate] + ClCCl
Settings | molar conductivity [S·m2/mol]
c1 = 4.824e-05 | 0.006815
c1 = 9.247e-05 | 0.00553
c1 = 0.0001694 | 0.004468
c1 = 0.0002351 | 0.003966
c1 = 0.0003147 | 0.003557
c1 = 0.0003984 | 0.003254
c1 = 0.0004826 | 0.003028
c1 = 0.0005864 | 0.002809
c1 = 0.0007039 | 0.002623
c1 = 0.0008092 | 0.002481

CCCCn1cc[n+](C)c1C.F[B-](F)(F)F [1-butyl-2,3-dimethylimidazolium tetrafluoroborate] + ClCCl
Settings | molar conductivity [S·m2/mol]
c1 = 4.614e-05 | 0.006049
c1 = 9.614e-05 | 0.0047
c1 = 0.0001552 | 0.003942
c1 = 0.0002185 | 0.003459
c1 = 0.0002763 | 0.003161
c1 = 0.0003472 | 0.002891
c1 = 0.0004196 | 0.002684
c1 = 0.0005021 | 0.002502
c1 = 0.0005985 | 0.002336
c1 = 0.0006827 | 0.00222

CCCCn1cc[n+](C)c1.F[P-](F)(F)(F)(F)F [1-butyl-3-methylimidazolium hexafluorophosphate] + ClCCl
Settings | molar conductivity [S·m2/mol]
c1 = 6.999e-05 | 0.003807
c1 = 0.0001329 | 0.002948
c1 = 0.0001743 | 0.002637
c1 = 0.0002133 | 0.002425
c1 = 0.0002543 | 0.002259
c1 = 0.0003123 | 0.002073
c1 = 0.0003665 | 0.001941
c1 = 0.0004379 | 0.001804
c1 = 0.0005447 | 0.001647
c1 = 0.0006393 | 0.001541

CCCCn1cc[n+](C)c1.F[B-](F)(F)F [1-butyl-3-methylimidazolium tetrafluoroborate] + ClCCl
Settings | molar conductivity [S·m2/mol]
c1 = 4.455e-05 | 0.003701
c1 = 0.0001304 | 0.002353
c1 = 0.0002072 | 0.001927
c1 = 0.0002805 | 0.001689
c1 = 0.0003592 | 0.00152
c1 = 0.0004262 | 0.001412
c1 = 0.0005183 | 0.001299
c1 = 0.000625 | 0.0012
c1 = 0.0007268 | 0.001127
c1 = 0.0008458 | 0.001058

CCCCCCn1cc[n+](C)c1.F[P-](F)(F)(F)(F)F [1-hexyl-3-methylimidazolium hexafluorophosphate] + ClCCl
Settings | molar conductivity [S·m2/mol]
c1 = 2.071e-05 | 0.005749
c1 = 5.447e-05 | 0.004058
c1 = 8.254e-05 | 0.003448
c1 = 0.0001144 | 0.003025
c1 = 0.000155 | 0.002673
c1 = 0.0002089 | 0.002363
c1 = 0.0002627 | 0.002148
c1 = 0.0003123 | 0.001996
c1 = 0.0003903 | 0.001821
c1 = 0.0004551 | 0.00171

CCCCCCn1cc[n+](C)c1.F[B-](F)(F)F [1-hexyl-3-methylimidazolium tetrafluoroborate] + ClCCl
Settings | molar conductivity [S·m2/mol]
c1 = 5.56e-05 | 0.003176
c1 = 0.000168 | 0.001993
c1 = 0.000301 | 0.001551
c1 = 0.0004416 | 0.001315
c1 = 0.0005288 | 0.001218
c1 = 0.0006627 | 0.001107
c1 = 0.0007566 | 0.001048
c1 = 0.0009189 | 0.0009669
c1 = 0.001094 | 0.0009009
c1 = 0.001243 | 0.000856

CCCCCCCC[n+]1ccn(C)c1.F[B-](F)(F)F [1-methyl-3-octylimidazolium tetrafluoroborate] + ClCCl
Settings | molar conductivity [S·m2/mol]
c1 = 7.212e-05 | 0.002781
c1 = 0.0001299 | 0.002171
c1 = 0.000219 | 0.001735
c1 = 0.0002957 | 0.001524
c1 = 0.0003827 | 0.001364
c1 = 0.0004665 | 0.001253
c1 = 0.0005719 | 0.001149
c1 = 0.0006901 | 0.001061
c1 = 0.0008223 | 0.000986
c1 = 0.0009584 | 0.0009257

CCCCCCCC[n+]1ccn(C)c1.F[P-](F)(F)(F)(F)F [1-octyl-3-methylimidazolium hexafluorophosphate] + ClCCl
Settings | molar conductivity [S·m2/mol]
c1 = 2.186e-05 | 0.005349
c1 = 5.202e-05 | 0.003925
c1 = 8.128e-05 | 0.003298
c1 = 0.0001312 | 0.002717
c1 = 0.0001741 | 0.00242
c1 = 0.000228 | 0.002164
c1 = 0.0002847 | 0.001973
c1 = 0.00035 | 0.00181
c1 = 0.0004112 | 0.001693
c1 = 0.000468 | 0.001605

CCCC[N+](CCCC)(CCCC)CCCC.O=S(=O)([N-]S(=O)(=O)C(F)(F)F)C(F)(F)F [tetrabutylammonium bis[(trifluoromethyl)sulfonyl]imide] + ClCCl
Settings | molar conductivity [S·m2/mol]
c1 = 3.138e-05 | 0.007892
c1 = 6.11e-05 | 0.006903
c1 = 0.0001374 | 0.005603
c1 = 0.0001725 | 0.00525
c1 = 0.0002161 | 0.00489
c1 = 0.0002632 | 0.004603
c1 = 0.0003161 | 0.004342
c1 = 0.0003672 | 0.004133
c1 = 0.0004141 | 0.003988

CC[N+](CC)(CC)CC.O=S(=O)([N-]S(=O)(=O)C(F)(F)F)C(F)(F)F [tetraethylammonium bis[(trifluoromethyl)sulfonyl]imide] + ClCCl
Settings | molar conductivity [S·m2/mol]
c1 = 2.423e-05 | 0.009105
c1 = 5.571e-05 | 0.007427
c1 = 9.604e-05 | 0.006311
c1 = 0.0001485 | 0.005431
c1 = 0.0001889 | 0.005043
c1 = 0.0002419 | 0.004629
c1 = 0.0002877 | 0.004339
c1 = 0.0004028 | 0.003882
c1 = 0.0004632 | 0.003716

CC[N+](CC)(CC)CC.F[P-](F)(F)(F)(F)F [tetraethylammonium hexafluorophosphate] + ClCCl
Settings | molar conductivity [S·m2/mol]
c1 = 2.991e-05 | 0.008681
c1 = 7.038e-05 | 0.00678
c1 = 0.0001289 | 0.005542
c1 = 0.0001812 | 0.004911
c1 = 0.0002384 | 0.004448
c1 = 0.0002993 | 0.00409
c1 = 0.0003669 | 0.003794
c1 = 0.0004231 | 0.003599
c1 = 0.000508 | 0.003365
c1 = 0.0006057 | 0.003153

CC[N+](CC)(CC)CC.F[B-](F)(F)F [tetraethylammonium tetrafluoroborate] + ClCCl
Settings | molar conductivity [S·m2/mol]
c1 = 5.65e-05 | 0.006094
c1 = 0.000125 | 0.004646
c1 = 0.0002055 | 0.003888
c1 = 0.0002819 | 0.003459
c1 = 0.0003766 | 0.003101
c1 = 0.0004713 | 0.002847
c1 = 0.0005736 | 0.002643
c1 = 0.0006991 | 0.00245
c1 = 0.0007981 | 0.00233
c1 = 0.0008975 | 0.002227

C[N+](C)(C)C.O=S(=O)([N-]S(=O)(=O)C(F)(F)F)C(F)(F)F [tetramethylammonium bis[(trifluoromethyl)sulfonyl]imide] + ClCCl
Settings | molar conductivity [S·m2/mol]
c1 = 1.807e-05 | 0.006904
c1 = 4.669e-05 | 0.005019
c1 = 8.293e-05 | 0.004043
c1 = 0.0001225 | 0.003465
c1 = 0.0001669 | 0.003057
c1 = 0.000209 | 0.002792
c1 = 0.0002676 | 0.002521
c1 = 0.0003329 | 0.002305
c1 = 0.0004062 | 0.002123
c1 = 0.0004962 | 0.001957
